Experimental data: the NIST ThermoML archive (doi:10.1021/je0342419)
Numbers after ± are expanded uncertainties.

Key:
[1] = 300 kPa, Fluid (supercritical or subcritical phases)
[2] = xn = mol fraction of the nth substance listed; conditions: 300 kPa, Fluid (supercritical or subcritical phases)

Question: What does the source list for `O=C=O` [carbon dioxide]?
Answer: viscosity ([1]; 500 K): 0.0236 ± 0.0007 mPa·s; viscosity ([1]; 800 K): 0.0356 ± 0.0011 mPa·s; viscosity ([1]; 1100 K): 0.0452 ± 0.0014 mPa·s

Question: With `O=C=O` [carbon dioxide] + [HH] as the compound, how does the viscosity ([2]; 500 K, x2 = 0) read?
Answer: 0.0236 ± 0.0007 mPa·s

Question: What about the viscosity ([2]; 800 K, x2 = 0) of the same compound?
Answer: 0.0356 ± 0.0011 mPa·s

Question: What about the viscosity ([2]; 1100 K, x2 = 0) of the same compound?
Answer: 0.0452 ± 0.0014 mPa·s

Question: For `[HH]` [hydrogen], which viscosity ([1]; 500 K) is on record?
Answer: 0.0129 ± 0.0004 mPa·s

Question: And the viscosity ([1]; 800 K)?
Answer: 0.0179 ± 0.0005 mPa·s

Question: What about the viscosity ([1]; 1100 K) of the same compound?
Answer: 0.0226 ± 0.0007 mPa·s

Question: Which results are given for `[HH]` [hydrogen] + O=C=O?
Answer: viscosity ([2]; 500 K, x1 = 0.15): 0.0238 ± 0.0007 mPa·s; viscosity ([2]; 500 K, x1 = 0.3): 0.0241 ± 0.0007 mPa·s; viscosity ([2]; 500 K, x1 = 0.5): 0.0236 ± 0.0007 mPa·s; viscosity ([2]; 500 K, x1 = 0.7): 0.0215 ± 0.0006 mPa·s; viscosity ([2]; 500 K, x1 = 0.85): 0.0192 ± 0.0006 mPa·s; viscosity ([2]; 500 K, x1 = 1): 0.0129 ± 0.0004 mPa·s; viscosity ([2]; 800 K, x1 = 0.15): 0.0351 ± 0.0011 mPa·s; viscosity ([2]; 800 K, x1 = 0.3): 0.0346 ± 0.001 mPa·s; viscosity ([2]; 800 K, x1 = 0.5): 0.0336 ± 0.001 mPa·s; viscosity ([2]; 800 K, x1 = 0.7): 0.0303 ± 0.0009 mPa·s; viscosity ([2]; 800 K, x1 = 0.85): 0.0269 ± 0.0008 mPa·s; viscosity ([2]; 800 K, x1 = 1): 0.0179 ± 0.0005 mPa·s; viscosity ([2]; 1100 K, x1 = 0.15): 0.0438 ± 0.0013 mPa·s; viscosity ([2]; 1100 K, x1 = 0.3): 0.0431 ± 0.0013 mPa·s; viscosity ([2]; 1100 K, x1 = 0.5): 0.0422 ± 0.0013 mPa·s; viscosity ([2]; 1100 K, x1 = 0.7): 0.0403 ± 0.0012 mPa·s; viscosity ([2]; 1100 K, x1 = 0.85): 0.0346 ± 0.0011 mPa·s; viscosity ([2]; 1100 K, x1 = 1): 0.0226 ± 0.0007 mPa·s
